Measured values taken from patent publication US4246343A, “Microbial detection and enumeration method and apparatus” (University of Virginia and National Aeronautics & Space …, priority 1979, dated 1981).
Counter-ions that a name gives are not always drawn. Like-named read-outs stand apart in the source and are kept apart here.

Experiments:
E. coli (ATCC) = assay: Electroanalytically determined MIC, gram-negative bacteria; assay type: cell-based, Escherichia coli, "Seattle Strain" ATCC 25922
Description: (§1) Identical lots of media and antimicrobial agents were used in the susceptibility tests performed. The media used were trypticase soy agar (TSA) and TSB from Baltimore Biological Laboratories (BBL), Cockeysville, Maryland. The 12 antimicrobial agents used in the experiments, which were chosen on the basis of their clinical usefulness, were laboratory reference standards including the following antibiotics: penicillin G potassium, caphalothin sodium, tobramycin, vancomycin hydrochloride and streptomycin sulfate obtained from Eli Lilly and Co.; tetracycline and carbenicillin obtained from Pfizer Laboratories; ampicillin and sodium nafcillin from Wyeth Laboratories; kanamycin and methicillin from Bristol Laboratories; gentamicin from Schering.
(§2) The following cultures were obtained from Hoffmann-LaRoche, Inc. and were derived from the American Type Culture Collection (ATCC) organisms as indicated: Escherichia coli, "Seattle Strain" ATCC 25922, Klebsiella pneumoniae ATCC 27736; Pseudomonas aeruginosa, ATCC 9721. These bacteria are gram negative bacteria. The following bacteria are gram positive: Staphylococcus aureus, "Seattle Strain" ATCC 25923; Staphylococcus epiderdimis ATCC 14990; and Streptococcus pyogenes, ATCC 10389. In addition, clinical specimens of these same six organisms were obtained from sensitivity isolates from the University of Virginia Hospital Department of Clinical Pathology Bacteriology Section. These organisms, both pathogenic and non-pathogenic (Staphylococcus epidermidis), were chosen because they are some of the most frequently encountered organisms in clinical isolates.
(§3) Inocula were prepared by making a 100-fold dilution×2 of an overnight TSB culture of the organism to be tested in sterile TSB prewarmed to 35° C. Thus, the total dilution of overnight stock was 10^-4. From the 10^-4 series, 0.3 ml was transferred to a test tube (Falcon, disposable #2057) containing 2.7 ml of TSB if the growth control, or 2.6 ml of TSB plus 0.1 ml of a particular concentration of an appropriate antibiotic to be tested. The antibiotic was weighed on an analytical balance, according to each agent's activity standard, and diluted with sterile distilled water in a volumetric flask to achieve a stock solution of 1000 mcg/ml which was then frozen in small aliquots. Further dilutions as necessary for susceptibility testing were also achieved through the addition of sterile distilled water to this stock concentration. Viable counts were made by plating appropriate dilutions from the 10^-4 series on TSA and counting colonies after 24 hours incubation at 35° C. Viable counts were also made on each microorganism at the time of MDC and again at the end of the 24 hour test period to confirm the minimum inhibitory concentration (MIC).
(§4) The experimental apparatus used in this study to monitor the inhibition of growth due to the addition of antibiotics consisted of test tubes, up to and including 8, size 17×100 mm, each containing a sterilized (by boiling) Pt-SCE combination electrode (Sargent-Welch, S-30101-15), plus TSB, microorganisms, and antibiotic where appropriate, positioned in a 35° C. heating block. Leads from the electrode were connected to a high impedance (greater than 10^8 ohms) potentiometer, or voltage following device, which in turn was connected to a strip chart recorder (Hewlett-Packard type 680M). Microbial growth was measured by an increase in voltage in the negative direction with time as recorded on the strip chart recorder.
(§5) FIG. 12 is a stripchart recording of the antimicrobial response curve of a four channeled expriment involving a clinical specimen of the non-hydrogenproducing, Gram-positive bacteria Staphylococcus epidermidis treated with 0.012, 0.5 and 1.0 mcg/ml of the antibiotic ampicillin as shown in curves B, C and D respectively. […]

E. coli (clinical) = assay: as above; assay type: cell-based, Escherichia coli
Description: as §1, §2, §3, §4, §5

K. pneumoniae (ATCC) = assay: Electroanalytically determined MIC / antimicrobial response curve, gram-negative bacteria; assay type: cell-based, Klebsiella pneumoniae ATCC 27736
Description: as §1, §2, §3, §4, §5

K. pneumoniae (clinical) = assay: Electroanalytically determined MIC, gram-negative bacteria; assay type: cell-based, Klebsiella pneumoniae
Description: as §1, §2, §3
as §4, with “recorder. […]” for “recorder.”

P. aeruginosa (ATCC) = assay: as above; assay type: cell-based, Pseudomonas aeruginosa, ATCC 9721
Description: as §1, §2, §3, §4, §5

P. aeruginosa (clinical) = assay: as above; assay type: cell-based, Pseudomonas aeruginosa
Description: as §1, §2, §3, §4, §5

S. aureus (ATCC) = assay: Electroanalytically determined MIC, gram-positive bacteria; assay type: cell-based, "Seattle Strain" ATCC 25923; details: Staphylococcus aureus
Description: as §1, §2, §3, §4, §5

S. aureus (clinical) = assay: as above; assay type: cell-based; details: Staphylococcus aureus
Description: as §1, §2, §3, §4, §5

S. epidermidis (ATCC) = assay: as above; assay type: cell-based, Staphylococcus epiderdimis ATCC 14990; details: Staphylococcus epidermidis
Description: as §1, §2, §3, §4, §5

[1] = test system: S. epidermidis (clinical); assay: Electroanalytically determined MIC / antimicrobial response curve, gram-positive bacteria; assay type: cell-based, Staphylococcus epidermidis; details: for MIC: Staphylococcus epidermidis
Description: as §1, §2, §3, §4, §5

S. pyogenes (clinical) = assay: Electroanalytically determined MIC, gram-positive bacteria; assay type: cell-based; details: Streptococcus pyogenes, 24 h
Description: as §1, §2, §3, §4, §5

S. pyogenes (ATCC) = assay: as above; assay type: cell-based, ATCC 10389; details: Streptococcus pyogenes, 24 h
Description: as §1, with “Schering. […]” for “Schering.”
as §4, with “Leads from the electrode were connected to a high impedance (greater than 10^8 ohms) potentiometer, or voltage following device, which in turn was connected to a strip chart recorder (Hewlett-Packard type 680M).” left out, “recorder. […]” for “recorder.”

[2] = S. aureus (ATCC), TSB, 35° C., 24 hour test period, read-out: MIC
[3] = S. aureus (clinical), TSB, 35° C., 24 hour test period, read-out: MIC
[4] = S. epidermidis (ATCC), TSB, 35° C., 24 hour test period, read-out: MIC
[5] = S. epidermidis (clinical), TSB, 35° C., 24 hour test period, read-out: MIC

Row | Compound | MIC (E. coli (ATCC); Escherichia coli, 24 h) [µg/mL] | MIC (E. coli (clinical); Escherichia coli, 24 h) [µg/mL] | MIC (K. pneumoniae (ATCC); Klebsiella pneumoniae, 24 h) [µg/mL] | MIC (K. pneumoniae (clinical); Klebsiella pneumoniae, 24 h) [µg/mL] | MIC (P. aeruginosa (ATCC); Pseudomonas aeruginosa, 24 h) [µg/mL] | MIC (P. aeruginosa (clinical); Pseudomonas aeruginosa, 24 h) [µg/mL] | MIC (S. aureus (ATCC); 24 h) [µg/mL] | MIC (S. aureus (clinical); 24 h) [µg/mL] | MIC (S. epidermidis (ATCC); 24 h) [µg/mL] | MIC ([1]; 24 h) [µg/mL] | MIC (S. aureus (ATCC); [2]) [µg/mL] | MIC (S. aureus (clinical); [3]) [µg/mL] | MIC (S. epidermidis (ATCC); [4]) [µg/mL] | MIC [1, 5] [µg/mL] | also measured
1 | CN(C)[C@@H]1C(=O)C(C(N)=O)=C(O)[C@@]2(O)C(=O)C3=C(O)c4c(O)cccc4[C@@](C)(O)[C@H]3C[C@@H]12 [Tetra, tetracycline] | 1 | 4 | 5 to 6 | 5 to 6 | 64 | 64 | 2 | 2 | 1 to 2 | 2 |  |  |  |  | 
2 | gentamicin |  |  |  |  |  |  |  |  |  |  |  |  |  |  | MIC (E. coli (ATCC); E. coli (ATCC), TSB, 35° C., 24 hour test period): 0.5 µg/mL; MIC (E. coli (clinical); E. coli (clinical), TSB, 35° C., 24 hour test period): 1.0 µg/mL; MIC (K. pneumoniae (ATCC); K. pneumoniae (ATCC), TSB, 35° C., 24 hour test period): 0.5 µg/mL; MIC (K. pneumoniae (clinical); K. pneumoniae (clinical), TSB, 35° C., 24 hour test period): 0.5 µg/mL; MIC (P. aeruginosa (ATCC); P. aeruginosa (ATCC), TSB, 35° C., 24 hour test period): 2.0 µg/mL; MIC (P. aeruginosa (clinical); P. aeruginosa (clinical), TSB, 35° C., 24 hour test period): 4.0 µg/mL
3 | COc1cccc(OC)c1C(=O)N[C@@H]1C(=O)N2[C@@H]1SC(C)(C)[C@@H]2C(=O)O [Meth, methicillin] |  |  |  |  |  |  |  |  |  |  | 0.7 | 0.7 | 0.5 to 1 | 0.5 to 1 | 
4 | CN[C@H](CC(C)C)C(=O)N[C@H]1C(=O)N[C@@H](CC(N)=O)C(=O)N[C@H]2C(=O)N[C@H]3C(=O)N[C@H](C(=O)N[C@H](C(=O)O)c4cc(O)cc(O)c4-c4cc3ccc4O)[C@H](O)c3ccc(c(Cl)c3)Oc3cc2cc(c3O[C@@H]2O[C@H](CO)[C@@H](O)[C@H](O)[C@H]2O[C@H]2C[C@](C)(N)[C@H](O)[C@H](C)O2)Oc2ccc(cc2Cl)[C@H]1O [Vanco, vancomycin hydrochloride] |  |  |  |  |  |  | 1 | 2 | 1.5 | 2 to 3 |  |  |  |  | MIC (S. pyogenes (clinical)): 0.5 µg/mL; MIC (S. pyogenes (ATCC)): 0.1 to 0.5 µg/mL
5 | NC[C@H]1O[C@H](O[C@H]2[C@H](O)[C@@H](O[C@H]3O[C@H](CO)[C@@H](O)[C@H](N)[C@H]3O)[C@H](N)C[C@@H]2N)[C@H](O)[C@@H](O)[C@@H]1O [Kana, kanamycin] | 3 | 4 | 3 | 4 | 32 to 64 | 64 | 0.2 | 0.5 to 1 | 0.4 | 0.6 |  |  |  |  | 
6 | CC1(C)S[C@@H]2[C@H](NC(=O)[C@H](N)c3ccccc3)C(=O)N2[C@H]1C(=O)O [Amp, ampicillin] |  |  |  |  | > 128 | > 128 |  |  |  |  | 0.12 to 0.6 | 0.12 | 1 | 0.8 to 1 | MIC (E. coli (ATCC); Escherichia coli, E. coli (ATCC), TSB, 35° C., 24 hour test period, read-out: MIC): 4 µg/mL; MIC (E. coli (clinical); Escherichia coli, E. coli (clinical), TSB, 35° C., 24 hour test period, read-out: MIC): 6 µg/mL; MIC (K. pneumoniae (ATCC); Klebsiella pneumoniae, K. pneumoniae (ATCC), TSB, 35° C., 24 hour test period, read-out: MIC): 32 µg/mL; growth inhibition (antimicrobial response curve, FIG. 12) ([1]; S. epidermidis clinical specimen, 0.012, 0.5 and 1.0 mcg/ml): increasingly inhibited
